The values below are quoted from earlier work in patent US20070265281A1, “Organic Compounds and Their Uses” (priority 2006, published 2007).

This data set deals with HCV. The settings on record: ribavirin alone.

In the case of `NC(=O)c1ncn([C@@H]2O[C@H](CO)[C@@H](O)[C@H]2O)n1` [Ribavirin, 1-β-D-ribofuranosyl-1-1,2,4-triazole-3-caroxamide], the “patients in whom serum amino transferase levels are reduced to normal” value is 40%. Besides, the “serum levels of HCV-RNA” value (patients) is “does not lower”.
